Experimental data from the supplement of paper PMC11061612.

Assays:
Assay in all cases: Bliss excess, mean over the matrix (fraction); higher = more synergy
KP-N-YN (Neuroblastoma) = system: KP-N-YN (Neuroblastoma)
Summary of the method: (§1)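 Bliss excess equals the observed combination effect minus the expected value EA + EB − EA·EB, where EA and EB are the effects of each agent alone. Combination Emax is the second-highest inhibition within the matrix. Inhibition was scaled from CellTiter-Glo 2.0 luminescence, with 0 set by vehicle wells and 1 by blank wells, after 72 hours of two-drug dosing of cells plated in 1536-well plates.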

[1] = system: NCI-H716 (Colorectal Carcinoma)
Summary of the method: as §1

[2] = system: NCI-H2228 (Lung Adenocarcinoma)
Summary of the method: as §1

[3] = system: KYSE-220 (Esophageal Squamous Cell Carcinoma)
Summary of the method: as §1

[4] = system: GCT (Other Solid Carcinomas)
Summary of the method: as §1

[5] = system: OACp4C (Esophageal Adenocarcinoma)
Summary of the method: as §1

[6] = system: NCI-H1703 (Squamous Cell Lung Carcinoma)
Summary of the method: as §1

[7] = system: JVM-2 (B-Cell Non-Hodgkin's Lymphoma)
Summary of the method: as §1

[8] = system: GA-10 (Burkitt's Lymphoma)
Summary of the method: as §1

[9] = system: MHH-ES-1 (Ewing's Sarcoma)
Summary of the method: as §1

IM-9 (Non-Cancerous) = system: IM-9 (Non-Cancerous)
Summary of the method: as §1

[10] = system: JHU-022 (Oral Cavity Carcinoma)
Summary of the method: as §1

[11] = system: CESS (Acute Myeloid Leukemia)
Summary of the method: as §1

769-P (Kidney Carcinoma) = system: 769-P (Kidney Carcinoma)
Summary of the method: as §1

[12] = system: LS-411N (Colorectal Carcinoma)
Summary of the method: as §1

[13] = system: A253 (Head and Neck Carcinoma)
Summary of the method: as §1

A204 (Rhabdomyosarcoma) = system: A204 (Rhabdomyosarcoma)
Summary of the method: as §1

COLO-792 (Melanoma) = system: COLO-792 (Melanoma)
Summary of the method: as §1

[14] = system: DU-4475 (Breast Carcinoma)
Summary of the method: as §1

[15] = system: A2780 (Ovarian Carcinoma)
Summary of the method: as §1

Compound	Bliss excess (KP-N-YN (Neuroblastoma))	Bliss excess [1]	Bliss excess [2]	Bliss excess [3]	Bliss excess [4]	Bliss excess [5]	Bliss excess [6]	Bliss excess [7]	Bliss excess [8]	Bliss excess [9]	Bliss excess (IM-9 (Non-Cancerous))	Bliss excess [10]	Bliss excess [11]	Bliss excess (769-P (Kidney Carcinoma))	Bliss excess [12]	Bliss excess [13]	Bliss excess (A204 (Rhabdomyosarcoma))	Bliss excess (COLO-792 (Melanoma))	Bliss excess [14]	Bliss excess [15]
CC(=O)c1c(C)c2cnc(Nc3ccc(N4CCNCC4)cn3)nc2n(C2CCCC2)c1=O [Palbociclib] + Cn1cnc2c(F)c(Nc3ccc(Br)cc3Cl)c(C(=O)NOCCO)cc21 [Selumetinib] (first compound max 10 µM, 7x7, partner max 10 µM)	-0.0253	-0.0843	-0.0822	0.0235	-0.0369	-0.0359	0.0303	0.0271	-0.0193	-0.0061	0.0248	0.0858	0.0202	0.039	0.0131	-0.0864	-0.0261	-0.0127	-0.0446	0.0327
COc1cccc(OCCCN)c1-c1cc(Nc2cnc(C#N)cn2)n[nH]1 [Prexasertib] + C=CCn1c(=O)c2cnc(Nc3ccc(N4CCN(C)CC4)cc3)nc2n1-c1cccc(C(C)(C)O)n1 [AZD1775] (first compound max 1 µM, partner max 1 µM)	0.0385	0.0167	0.0199	0.0333	0.0294	-0.0189	0.066	-0.0174	0.0653	0.0402	0.0644	0.0861	-0.0059	0.0163	-0.0017	0.0877	0.0437	0.0236	0.114	0.155
COc1cccc(OCCCN)c1-c1cc(Nc2cnc(C#N)cn2)n[nH]1 [Prexasertib] + CCc1c2c(nc3ccc(O)cc13)-c1cc3c(c(=O)n1C2)COC(=O)[C@]3(O)CC [SN-38] (first compound max 1 µM, 7x7, partner max 0.3 µM)	-0.0158	0.0825	-0.0569	-0.0153	-0.0185	0.0186	-0.0374	-0.0493	0.0088	0.0134	0.0077	-0.112	-0.0364	-0.0688	0.0331	0.0296	-0.0375	0.087	0.0035	-0.0528
COc1cccc(OCCCN)c1-c1cc(Nc2cnc(C#N)cn2)n[nH]1 [Prexasertib] + CN(C)CCCOc1ccc(-c2ccc3ncc4c(c3c2)n(C2CCOCC2)c(=O)n4C)cn1 [AZD0156] (first compound max 1 µM, 7x7, partner max 1 µM)	0.0202	0.025	-0.0488	-0.026	-0.0084	-0.0162	-0.0295	-0.0104	0.0213	0.0004	-0.0022	-0.0231	0.0062	0.0193	-0.0336	-0.0379	-0.018	-0.0447	-0.0171	0.0127
COc1cccc(OCCCN)c1-c1cc(Nc2cnc(C#N)cn2)n[nH]1 [Prexasertib] + C[C@@H]1COCCN1C2=NC(=NC(=C2)C3(CC3)[S@](=N)(=O)C)C4=C5C=CNC5=NC=C4 [AZD6738] (first compound max 1 µM, 7x7, partner max 10 µM)	-0.0048	-0.0432	-0.0434	-0.0294	-0.0001	-0.0882	0.0047	-0.0625	-0.0023	-0.0161	-0.003	-0.0238	-0.0065	0.0022	-0.0349	-0.0334	-0.0542	-0.0376	-0.022	-0.0173
COc1cccc(OCCCN)c1-c1cc(Nc2cnc(C#N)cn2)n[nH]1 [Prexasertib] + Cc1cc2ncnn2cc1Nc1ncc2c(n1)n(C1CCOCC1)c(=O)n2C [AZD7648] (first compound max 1 µM, 7x7, partner max 10 µM)	-0.0221	0.0577	-0.0487	-0.0308	0.0365	0.0093	-0.0192	0.0171	-0.0051	-0.004	-0.014	-0.0661	0.0409	-0.038	-0.0082	-0.0228	-0.091	0.0103	0.0256	0.0097
COc1cccc(OCCCN)c1-c1cc(Nc2cnc(C#N)cn2)n[nH]1 [Prexasertib] + O=C(c1cc(Cc2n[nH]c(=O)c3ccccc23)ccc1F)N1CCN(C(=O)C2CC2)CC1 [Olaparib] (first compound max 1 µM, 7x7, partner max 10 µM)	-0.245	-0.0673	-0.0834	-0.0238	0.0068	-0.0222	-0.0537	0.0213	-0.0649	0.0048	0.0046	-0.0537	-0.0511	-0.118	-0.271	-0.0617	-0.0675	0.0173	-0.0174	-0.0298
CCc1c2c(nc3ccc(O)cc13)-c1cc3c(c(=O)n1C2)COC(=O)[C@]3(O)CC [SN-38] + CN(C)CCCOc1ccc(-c2ccc3ncc4c(c3c2)n(C2CCOCC2)c(=O)n4C)cn1 [AZD0156] (first compound max 0.3 µM, 7x7, partner max 1 µM)	0.0238	0.0129	0.0587	0.0574	0.0183	0.0666	0.0117	0.0156	0.0494	0.0449	0.0891	-0.0034	0.0031	0.018	0.0079	-0.0019	0.0736	-0.011	0.0129	-0.0099
Cn1cnc2c(F)c(Nc3ccc(Br)cc3Cl)c(C(=O)NOCCO)cc21 [Selumetinib] + C=CCn1c(=O)c2cnc(Nc3ccc(N4CCN(C)CC4)cc3)nc2n1-c1cccc(C(C)(C)O)n1 [AZD1775] (first compound max 10 µM, partner max 1 µM)	-0.0751	-0.0992	-0.0613	-0.0391	-0.0074	-0.0357	-0.0612	-0.071	-0.0321	-0.0733	-0.045	0.0283	-0.0037	-0.0944	-0.0554	-0.0181	-0.0511	0.0092	-0.0196	-0.0352
Cn1cnc2c(F)c(Nc3ccc(Br)cc3Cl)c(C(=O)NOCCO)cc21 [Selumetinib] + CC(C)n1c(=O)n(C)c2cnc3cc(F)c(-c4ccc(OCCCN5CCCCC5)nc4)cc3c21 [AZD1390] (first compound max 10 µM, 7x7, partner max 0.3 µM)	-0.0171	0.0093	-0.0477	0.0022	-0.0054	0.0048	-0.0158	0.0102	-0.0227	-0.0328	-0.0603	0.02	-0.0355	0.0125	-0.0107	-0.0504	-0.0567	-0.0088	-0.0112	-0.0369
Cn1cnc2c(F)c(Nc3ccc(Br)cc3Cl)c(C(=O)NOCCO)cc21 [Selumetinib] + CCN(CCO)CCCOc1ccc2c(Nc3cc(CC(=O)Nc4cccc(F)c4)[nH]n3)ncnc2c1 [AZD2811] (first compound max 10 µM, 7x7, partner max 1 µM)	0.0253	0.044	-0.0357	0.036	-0.0185	0.0193	-0.0167	0.0315	-0.0559	-0.0268	-0.032	0.0079	0.0943	-0.0062	-0.0115	-0.018	-0.0772	-0.0532	0.0351	0.0251
Cn1cnc2c(F)c(Nc3ccc(Br)cc3Cl)c(C(=O)NOCCO)cc21 [Selumetinib] + C[C@@H]1COCCN1C2=NC(=NC(=C2)C3(CC3)[S@](=N)(=O)C)C4=C5C=CNC5=NC=C4 [AZD6738] (first compound max 10 µM, 7x7, partner max 10 µM)	-0.0431	-0.0341	-0.0098	-0.0446	0.0294	-0.0052	-0.0318	-0.0344	-0.0046	-0.046	-0.0817	-0.0175	-0.0205	-0.0122	-0.0195	-0.0229	-0.0363	0.0362	-0.0103	0.0429
CC(=O)Nc1cccc(-n2c(=O)n(C3CC3)c(=O)c3c(Nc4ccc(I)cc4F)n(C)c(=O)c(C)c32)c1 [Trametinib] + Cc1nc(-c2cn3c(n2)-c2ccc(-c4cnn(C(C)(C)C(N)=O)c4)cc2OCC3)n(C(C)C)n1 [Taselisib] (first compound max 1 µM, 7x7, partner max 10 µM)	0.0046	0.325	0.0724	0.152	0.148	0.0416	0.0652	0.0171	0.0619	0.0141	0.0008	0.0194	0.219	0.0182	0.125	0.145	0.149	0.113	0.0664	0.0164
CC1(C)CCC(CN2CCN(c3ccc(C(=O)NS(=O)(=O)c4ccc(NCC5CCOCC5)c([N+](=O)[O-])c4)c(Oc4cnc5[nH]ccc5c4)c3)CC2)=C(c2ccc(Cl)cc2)C1 [Venetoclax] + C1CN(CCC1(C(=O)N[C@@H](CCO)C2=CC=C(C=C2)Cl)N)C3=NC=NC4=C3C=CN4 [Capivasertib] (first compound max 1 µM, 7x7, partner max 3 µM)	-0.0573	-0.0595	-0.0537	-0.0023	-0.0401	-0.0062	0.0192	-0.0118	-0.0614	-0.01	0.0533	-0.0729	-0.0707	-0.0433	-0.0139	-0.0084	-0.0358	-0.0203	0.0239	-0.0223
CC1(C)CCC(CN2CCN(c3ccc(C(=O)NS(=O)(=O)c4ccc(NCC5CCOCC5)c([N+](=O)[O-])c4)c(Oc4cnc5[nH]ccc5c4)c3)CC2)=C(c2ccc(Cl)cc2)C1 [Venetoclax] + C=CCn1c(=O)c2cnc(Nc3ccc(N4CCN(C)CC4)cc3)nc2n1-c1cccc(C(C)(C)O)n1 [AZD1775] (first compound max 1 µM, partner max 1 µM)	0.0109	0.0214	-0.0602	-0.0321	-0.0339	-0.03	0.009	0.0333	-0.0553	-0.001	0.0228	-0.0218	-0.0236	-0.0081	-0.0856	0.0263	-0.0433	0.021	-0.0262	0.0477
